# Values of other authors in patent publication US12551454B2, “Isoproterenol compositions and methods” (Endo Operations Limited, priority 2020, dated 2026).
# Settings: more potent than its (S)-enantiomer
smiles,measurement,value
"CC(C)NC[C@H](O)c1ccc(O)c(O)c1 (single isomer, unassigned) [(R)-enantiomer of Isoproterenol]",potency relative to (S)-enantiomer,~90 times
